Measurements: US10611740B2, “Aryl dihydro-2H-benzo[b][1,4]oxazine sulfonamide and related compounds for use as agonists of RORγ and the treatment of disease” (Lycera Corporation, priority 2015, dated 2020)
pEC50: −log10 of the molar value.

Key:
[1] = target: T1, Gal4-RORγ-LBD (Homo sapiens, UniProt P51449); assay: Gal4-RORγ Luciferase Reporter Assay in HEK-293T Cells; format: cell-based; conditions: HEK-293 cells, 2 μM ursolic acid
T1 construct: expressed in transfected cells; host or cells: HEK-293 cells (pcDNA3.1neo plasmid)
T1 sequence (P51449 269-508 limits assumed): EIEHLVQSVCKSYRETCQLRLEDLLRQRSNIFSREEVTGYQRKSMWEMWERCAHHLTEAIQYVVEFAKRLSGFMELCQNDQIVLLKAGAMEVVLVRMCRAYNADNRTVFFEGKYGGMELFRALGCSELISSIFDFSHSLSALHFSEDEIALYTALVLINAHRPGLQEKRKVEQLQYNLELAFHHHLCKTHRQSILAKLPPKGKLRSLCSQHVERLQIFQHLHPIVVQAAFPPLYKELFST
Procedure, shortened: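 HEK-293 cells were transiently co-transfected with Gal4-RORγ-LBD and pGL4.31 Gal4-luciferase, with ursolic acid added at 2 μM final. Compounds were incubated overnight at 37° C. in 0.2% DMSO and luminescence read with One-Glo. Max Response is the upper plateau of a 4-parameter logistic fit, with signal lacking ursolic acid or compound set to 100.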

[2] = target: T2, RORγ-LBD (Homo sapiens, UniProt P51449); assay: RORγ-Ligand Binding Domain (LBD) TR-FRET Assay; format: biochemical;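 for TR-FRET Assay Max Response: 665/615 nm ratio relative to signal without ursolic acid or compound set at 100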
T2 construct: made in house; host or cells: SF9 cells (baculovirus)
T2 sequence (P51449 269-508 limits assumed): T1 sequence (P51449 269-508 limits assumed)
Procedure, shortened: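 His-tagged RORγ-LBD from SF9 baculovirus lysate, ~3 nM final, in 50 mM Tris pH 7.0, 50 mM KCl, 1 mM EDTA, 0.1 mM DTT, 0.01% BSA. Biotinylated SRC1 LXXLL peptide at 200 nM final with 2 μM ursolic acid; TR-FRET read-out, 1% DMSO final.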

Row | Structure (SMILES) | pEC50 [1] | Gal4-RORγ Assay Max Response [1] | pEC50 [2] | TR-FRET Assay Max Response [2]
1 | O=C(O)C1(C[C@H]2CN(S(=O)(=O)c3cccc(C(F)(F)F)c3)c3cc(-c4cc(F)cc(F)c4Cl)ccc3O2)CCOCC1 [Compound 78C, (S)-4-((6-(2-chloro-3,5-difluoro-phenyl)-4-((3-(trifluoromethyl)-phenyl)sulfonyl)-3,4-dihydro-2H-benzo[b][1,4]oxazin-2-yl)methyl)tetrahydro-2H-pyran-4-carboxylic acid] | > 6.30 | *** (The symbol “***” indicates a value in the range of greater than 150 to 200) | > 6.30 | ** (The symbol “**” indicates a value in the range of greater than 90 to 150)
2 | O=C(O)C1(C[C@H]2CN(S(=O)(=O)c3cccc(C(F)(F)F)c3)c3cc(-c4cc(F)ccc4Cl)ccc3O2)CCOCC1 [Compound 78D, (S)-4-((6-(2-chloro-5-fluoro-phenyl)-4-((3-(trifluoromethyl)-phenyl)sulfonyl)-3,4-dihydro-2H-benzo[b][1,4]oxazin-2-yl)methyl)tetrahydro-2H-pyran-4-carboxylic acid] | > 6.30 | *** (The symbol “***” indicates a value in the range of greater than 150 to 200) | > 6.30 | ** (The symbol “**” indicates a value in the range of greater than 90 to 150)
3 | O=C(O)C1(C[C@H]2CN(S(=O)(=O)c3cccc(C(F)(F)F)c3)c3cc(-c4cc(F)cc(Cl)c4)ccc3O2)CCOCC1 [Compound 78E, (S)-4-((6-(3-chloro-5-fluoro-phenyl)-4-((3-(trifluoromethyl)-phenyl)sulfonyl)-3,4-dihydro-2H-benzo[b][1,4]oxazin-2-yl)methyl)tetrahydro-2H-pyran-4-carboxylic acid] | > 6.30 | ** (The symbol “**” indicates a value in the range of greater than 90 to 150) | > 6.30 | ** (The symbol “**” indicates a value in the range of greater than 90 to 150)
4 | O=C(O)C1(C[C@H]2CN(S(=O)(=O)c3cccc(C(F)(F)F)c3)c3cc(-c4cccc(Cl)c4F)ccc3O2)CCOCC1 [Compound 78F, (S)-4-((6-(3-chloro-2-fluoro-phenyl)-4-((3-(trifluoromethyl)-phenyl)sulfonyl)-3,4-dihydro-2H-benzo[b][1,4]oxazin-2-yl)methyl)tetrahydro-2H-pyran-4-carboxylic acid] | > 6.30 | ** (The symbol “**” indicates a value in the range of greater than 90 to 150) | > 6.30 | ** (The symbol “**” indicates a value in the range of greater than 90 to 150)
5 | Cc1cc(C)cc(-c2ccc3c(c2)N(S(=O)(=O)c2cccc(C(F)(F)F)c2)C[C@H](CC2(C(=O)O)CCOCC2)O3)c1 [Compound 78G, (S)-4-((6-(3,5-dimethylphenyl)-4-((3-(trifluoromethyl)phenyl)-sulfonyl)-3,4-dihydro-2H-benzo[b][1,4]oxazin-2-yl)methyl)tetrahydro-2H-pyran-4-carboxylic acid] | > 6.30 | ** (The symbol “**” indicates a value in the range of greater than 90 to 150) | > 6.30 | ** (The symbol “**” indicates a value in the range of greater than 90 to 150)
6 | O=C(O)C1(C[C@H]2CN(S(=O)(=O)c3cccc(C(F)(F)F)c3)c3cc(-c4cccc(C(F)(F)F)c4)ccc3O2)CCOCC1 [Compound 78H, (S)-4-((6-(3-(trifluoromethyl)-phenyl)-4-((3-(trifluoromethyl)-phenyl)sulfonyl)-3,4-dihydro-2H-benzo[b][1,4]oxazin-2-yl)methyl)tetrahydro-2H-pyran-4-carboxylic acid] | > 6.30 | * (The symbol “*” indicates a value in the range of 25 to 90) | > 6.30 | ** (The symbol “**” indicates a value in the range of greater than 90 to 150)
7 | C[C@H](CC(=O)O)[C@H]1CN(S(=O)(=O)c2cccc(C(F)(F)F)c2)c2cc(-c3cc(F)cc(F)c3Cl)ccc2O1 [Compound 80B, (R)-3-((S)-6-(2-chloro-3,5-difluorophenyl)-4-((3-(trifluoromethyl)phenyl)sulfonyl)-3,4-dihydro-2H-benzo[b][1,4]-oxazin-2-yl)butanoic acid] | 5.30 to 6.30 | ** (The symbol “**” indicates a value in the range of greater than 90 to 150) | > 6.30 | ** (The symbol “**” indicates a value in the range of greater than 90 to 150)
8 | C[C@@H](CC(=O)O)[C@H]1CN(S(=O)(=O)c2cccc(C(F)(F)F)c2)c2cc(-c3cc(F)cc(F)c3Cl)ccc2O1 [Compound 80C, (S)-3-((S)-6-(2-chloro-3,5-difluorophenyl)-4-((3-(trifluoromethyl)phenyl)sulfonyl)-3,4-dihydro-2H-benzo[b][1,4]-oxazin-2-yl)butanoic acid] | > 6.30 | ** (The symbol “**” indicates a value in the range of greater than 90 to 150) | > 6.30 | *** (The symbol “***” indicates a value in the range of greater than 150 to 200)
9 | CC(=O)N[C@H]1C[C@@](C[C@H]2CN(S(=O)(=O)c3cccc(C(F)(F)F)c3)c3cc(-c4cc(F)cc(OC(F)F)c4)ccc3O2)(C(=O)O)C1 [Compound 84, (1s,3R)-3-acetamido-1-(((S)-6-(3-(difluoromethoxy)-5-fluorophenyl)-4-((3-(trifluoromethyl)phenyl)sulfonyl)-3,4-dihydro-2H-benzo[b][1,4]oxazin-2-yl)methyl)cyclobutane-1-carboxylic acid] | 5.30 to 6.30 | * (The symbol “*” indicates a value in the range of 25 to 90) | > 6.30 | ** (The symbol “**” indicates a value in the range of greater than 90 to 150)
10 | CC(=O)N[C@H]1C[C@](C[C@H]2CN(S(=O)(=O)c3cccc(C(F)(F)F)c3)c3cc(-c4cc(F)cc(OC(F)F)c4)ccc3O2)(C(=O)O)C1 [Compound 85, (1r,3S)-3-acetamido-1-(((S)-6-(3-(difluoromethoxy)-5-fluorophenyl)-4-((3-(trifluoromethyl)phenyl)sulfonyl)-3,4-dihydro-2H-benzo[b][1,4]oxazin-2-yl)methyl)cyclobutane-1-carboxylic Acid] | > 6.30 | ** (The symbol “**” indicates a value in the range of greater than 90 to 150) | > 6.30 | ** (The symbol “**” indicates a value in the range of greater than 90 to 150)
11 | CC(=O)N[C@H]1C[C@@](C[C@H]2CN(S(=O)(=O)c3cccc(C(F)(F)F)c3)c3cc(-c4cc(F)ccc4F)ccc3O2)(C(=O)O)C1 [Compound 89A, (1s,3R)-3-acetamido-1-(((S)-6-(2,5-difluorophenyl)-4-((3-(trifluoro-methyl)phenyl)sulfonyl)-3,4-dihydro-2H-benzo[b][1,4]oxazin-2-yl)methyl)cyclobutane-1-carboxylic acid] | 5.30 to 6.30 | ** (The symbol “**” indicates a value in the range of greater than 90 to 150) | 5.30 to 6.30 | *** (The symbol “***” indicates a value in the range of greater than 150 to 200)
12 | CC(=O)N[C@H]1C[C@](C[C@H]2CN(S(=O)(=O)c3cccc(C(F)(F)F)c3)c3cc(-c4cc(F)ccc4F)ccc3O2)(C(=O)O)C1 [Compound 89B, (1r,3S)-3-acetamido-1-(((S)-6-(2,5-difluorophenyl)-4-((3-(trifluoro-methyl)phenyl)sulfonyl)-3,4-dihydro-2H-benzo[b][1,4]oxazin-2-yl)methyl)cyclobutane-1-carboxylic acid] | 5.30 to 6.30 | ** (The symbol “**” indicates a value in the range of greater than 90 to 150) | > 6.30 | ** (The symbol “**” indicates a value in the range of greater than 90 to 150)
